From ChEMBL document CHEMBL1129000, “Inhibitors of acyl-CoA: cholesterol O-acyl transferase (ACAT) as hypocholesterolemic agents. The synthesis and biological activity of a series of malonester amides” (Bioorg Med Chem Lett, 1996)
Active and inactive are the calls of the source. No cut-off for these calls is given here.

Key:
Rattus norvegicus [1] = experiment: In vivo percent change in the total cholesterol after consumption of a single high fat, high cholesterol meal by rats; assay type: functional
O-acyltransferase = O-acyltransferase (Oryctolagus cuniculus, UniProt G1SFD9); experiment: In vitro inhibitory activity against Acyl coenzyme A:cholesterol acyltransferase in intestinal microsomes isolated from cholesterol fed rabbits (IAI).; design: species or system Intestine
Chain of O-acyltransferase (G1SFD9 1-524): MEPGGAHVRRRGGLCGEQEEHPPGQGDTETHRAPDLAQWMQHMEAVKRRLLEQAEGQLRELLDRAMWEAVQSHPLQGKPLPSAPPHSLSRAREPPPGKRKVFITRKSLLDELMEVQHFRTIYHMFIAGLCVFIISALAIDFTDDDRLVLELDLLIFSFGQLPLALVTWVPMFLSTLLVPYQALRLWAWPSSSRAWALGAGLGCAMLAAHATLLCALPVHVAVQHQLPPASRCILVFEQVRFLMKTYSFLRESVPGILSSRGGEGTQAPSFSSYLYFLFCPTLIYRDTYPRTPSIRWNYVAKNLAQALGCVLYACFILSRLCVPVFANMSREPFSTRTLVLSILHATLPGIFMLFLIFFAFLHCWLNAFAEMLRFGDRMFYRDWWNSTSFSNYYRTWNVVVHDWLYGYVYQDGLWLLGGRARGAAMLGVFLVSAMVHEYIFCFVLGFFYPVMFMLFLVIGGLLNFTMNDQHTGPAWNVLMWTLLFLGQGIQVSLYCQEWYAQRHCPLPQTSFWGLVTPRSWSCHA

Rattus norvegicus [2] = experiment: Tested for the percentage change in non HDL-C in pre-established hypercholesterolemia (CPCC) model at a dose of 30 mg/kg; assay type: functional
Rattus norvegicus [3] = experiment: Tested for the percentage change in HDL in pre-established hypercholesterolemia (CPCC) model fat at a dose of 30 mg/kg; assay type: functional
Rattus norvegicus [4] = experiment: Tested for the percentage change in HDL in pre-established hypercholesterolemia (CPCC) model at a dose of 0.1 mg/kg; assay type: functional
Rattus norvegicus [5] = experiment: Tested for the percentage change in HDL in pre-established hypercholesterolemia (CPCC) model at a dose of 3 mg/kg.; assay type: functional
Rattus norvegicus [6] = experiment: Tested for the percentage change in non HDL-C in pre-established hypercholesterolemia (CPCC) model fat at a dose of 1 mg/kg; assay type: functional
Rattus norvegicus [7] = experiment: Tested for the percentage change in non HDL-C in pre-established hypercholesterolemia (CPCC) model at a dose of 0.1 mg/kg; assay type: functional
Rattus norvegicus [8] = experiment: Tested for the percentage change in non HDL-C in pre-established hypercholesterolemia (CPCC) model at dose of 3 mg/kg.; assay type: functional
Rattus norvegicus [9] = experiment: Tested for the percentage change in HDL in pre-established hypercholesterolemia (CPCC) model at a dose of 1 mg/kg; assay type: functional
Rattus norvegicus [10] = experiment: Tested for the percentage change in non HDL in pre-established hypercholesterolemia (CPCC) model fat at a dose of 30 mg/kg; assay type: functional
Rattus norvegicus [11] = experiment: Tested for the percentage change in non HDL-C in pre-established hypercholesterolemia (CPCC) model at dose of 10 mg/kg (p<0.05); assay type: functional
Rattus norvegicus [12] = experiment: Tested for the percentage change in non HDL-C in pre-established hypercholesterolemia (CPCC) model fat at a dose of 3 mg/kg (p<0.05); assay type: functional
Rattus norvegicus [13] = experiment: Tested for the percentage change in HDL in pre-established hypercholesterolemia (CPCC) model at a dose of 10 mg/kg (p<0.05); assay type: functional
Rattus norvegicus [14] = experiment: Tested for the percentage change in HDL in pre-established hypercholesterolemia (CPCC) model at a dose of 3 mg/kg (p<0.05); assay type: functional
Rattus norvegicus [15] = experiment: Tested for the percentage change in non HDL-C in pre-established hypercholesterolemia (CPCC) model at a dose of 1 mg/kg (p<0.05); assay type: functional
Rattus norvegicus [16] = experiment: Tested for the percentage change in HDL in pre-established hypercholesterolemia (CPCC) model at a dose of 1 mg/kg (p<0.05); assay type: functional
Rattus norvegicus [17] = experiment: Tested for the percentage change in non HDL-C in pre-established hypercholesterolemia (CPCC) model at dose of 10 mg/kg.; assay type: functional
Rattus norvegicus [18] = experiment: Tested for the percentage change in HDL in pre-established hypercholesterolemia (CPCC) model at a dose of 3 mg/kg; assay type: functional
Rattus norvegicus [19] = experiment: Tested for the percentage change in HDL in pre-established hypercholesterolemia (CPCC) model at a dose of 10 mg/kg.; assay type: functional
Rattus norvegicus [20] = experiment: Tested for the percentage change in HDL in pre-established hypercholesterolemia (CPCC) model at a dose of 1 mg/kg; No change; assay type: functional, organism-based; design: dose 1 mg/kg
Rattus norvegicus [21] = experiment: Tested for the percentage change in non HDL-C in pre-established hypercholesterolemia (CPCC) model at a dose of 1 mg/kg; assay type: functional
Rattus norvegicus [22] = experiment: Tested for the percentage change in non HDL-C in pre-established hypercholesterolemia (CPCC) model fat at a dose of 3 mg/kg; assay type: functional
Rattus norvegicus [23] = experiment: Tested for the percentage change in non HDL in pre-established hypercholesterolemia (CPCC) model fat at a dose of 30 mg/kg; Non significant; assay type: functional, organism-based; design: dose 30 mg/kg

SMILES | Change (Rattus norvegicus [1]) [%] | IC50 (O-acyltransferase) [nM] | other results
CCCCCCCCCCOC(=O)CC(=O)Nc1c(C(C)C)cccc1C(C)C | -37 | 53 | 
CC(C)c1cccc(C(C)C)c1NC(=O)CC(=O)Oc1c(-c2ccccc2)cccc1-c1ccccc1 | -41 | 67 | 
CCCCCCCCCCCCOC(=O)CC(=O)Nc1c(C(C)C)cccc1C(C)C | -52 | 11 | Change (Rattus norvegicus [2]): -8%; Change (Rattus norvegicus [3]): -21%
CC(C)c1cccc(C(C)C)c1OC(=O)CC(=O)Nc1c(F)cc(F)cc1F | -9 | > 5000 | 
COc1cccc(OC)c1OC(=O)CC(=O)Nc1c(C(C)C)cccc1C(C)C | 5 | 1700 | 
CC(C)c1cccc(C(C)C)c1NC(=O)CC(=O)O |  | > 5000 | 
CC(C)c1cccc(C(C)C)c1NC(=O)CC(=O)OC(c1ccccn1)c1ccccn1 | -55 | > 5000 | 
CCCCCCCCCCCC[C@H](C)OC(=O)CC(=O)Nc1c(C(C)C)cccc1C(C)C | -66 | 4 | 
CC(C)c1cccc(C(C)C)c1OC(=O)CC(=O)Nc1c(N(C)C)cccc1N(C)C | -29 | 71 | 
CCCCCCOC(=O)CC(=O)Nc1c(C(C)C)cccc1C(C)C | -29 | 810 | 
CCCCCCCCCCCCC(C)(C)OC(=O)CC(=O)Nc1c(C(C)C)cccc1C(C)C | -72 | 12 | Change (Rattus norvegicus [4]): -12%; Change (Rattus norvegicus [5]): -13%; Change (Rattus norvegicus [6]): -19%; Change (Rattus norvegicus [7]): -11%; Change (Rattus norvegicus [8]): -19%; Change (Rattus norvegicus [9]): 6%
Cc1cccc(C)c1NC(=O)CC(=O)Oc1c(C(C)C)cccc1C(C)C | 5 | 210 | 
CCCCCCCCCCCCCCOC(=O)CC(=O)Nc1c(C(C)C)cccc1C(C)C | -61 | 15 | Change (Rattus norvegicus [10]): 6%; Change (Rattus norvegicus [2]): -11%
CCCCCCCCC(C)OC(=O)CC(=O)Nc1c(C(C)C)cccc1C(C)C (stereo not given) | -61 | 12 | 
CC(C)c1cccc(C(C)C)c1NC(=O)CC(=O)OC(c1ccccc1)c1ccccn1 (stereo not given) |  | > 5000 | 
CCCCCCCCCCCCCCCCCCOC(=O)CC(=O)Nc1c(C(C)C)cccc1C(C)C | -16 | 53 | 
CCCCCCCCCCCCC(C)OC(=O)CC(=O)Nc1c(C(C)C)cccc1C(C)C (stereo not given) | -54 |  | Change (Rattus norvegicus [11]): -83%; Change (Rattus norvegicus [12]): -73%; Change (Rattus norvegicus [13]): 114%; Change (Rattus norvegicus [14]): 157%; Change (Rattus norvegicus [15]): -54%; Change (Rattus norvegicus [16]): 64%

SMILES | Change (Rattus norvegicus [1]) [%] | IC50 (O-acyltransferase) [nM] | other results
COc1cc(OC)c(NC(=O)CC(=O)Oc2c(C(C)C)cccc2C(C)C)c(OC)c1 | -29 | 1000 | 
CC(C)c1cccc(C(C)C)c1OC(=O)CC(=O)Nc1ccc(F)cc1F |  | 6400 | 
CCCCCC(C)OC(=O)CC(=O)Nc1c(C(C)C)cccc1C(C)C (stereo not given) | -46 | 27 | 
CCCCCCCCCCCCCCC(C)OC(=O)CC(=O)Nc1c(C(C)C)cccc1C(C)C (stereo not given) | -60 | 11 | Change (Rattus norvegicus [4]): -12%; Change (Rattus norvegicus [5]): -24%; Change (Rattus norvegicus [6]): 7%; Change (Rattus norvegicus [7]): -8%; Change (Rattus norvegicus [8]): -2%; Change (Rattus norvegicus [9]): 13%
CC(C)c1cccc(C(C)C)c1OC(=O)CC(=O)Nc1ccccc1 |  | > 5000 | 
CCCCCCCCCCCCCCCCOC(=O)CC(=O)Nc1c(C(C)C)cccc1C(C)C | -56 | 35 | 
CCCCCCCCOC(=O)CC(=O)Nc1c(C(C)C)cccc1C(C)C | -43 | 260 | 
CC(C)c1cccc(C(C)C)c1NC(=O)CC(=O)OC(C)(C)C | -24 | 130 | 
CC(C)c1cccc(C(C)C)c1NC(=O)CC(=O)OC(c1ccccc1)c1ccccc1 | -41 | 38 | 
CC(C)c1cccc(C(C)C)c1OC(=O)CC(=O)Nc1c(F)cccc1F | 4 | 6200 | 
CCOC(=O)CC(=O)Nc1c(C(C)C)cccc1C(C)C |  | 1800 | 
CCCCCCCCCCC(C)OC(=O)CC(=O)Nc1c(C(C)C)cccc1C(C)C (stereo not given) | -70 | 6 | Change (Rattus norvegicus [17]): -51%; Change (Rattus norvegicus [18]): 36%; Change (Rattus norvegicus [19]): 29%; Change (Rattus norvegicus [20]): inactive; Change (Rattus norvegicus [21]): -15%; Change (Rattus norvegicus [22]): -40%
CCCCCCCCCCCC[C@@H](C)OC(=O)CC(=O)Nc1c(C(C)C)cccc1C(C)C | -67 | 4 | 
CC(C)c1cccc(C(C)C)c1NC(=O)CC(=O)Oc1c(C(C)C)cccc1C(C)C | <-50 | 42 | Change (Rattus norvegicus [23]): Not significant; Change (Rattus norvegicus [2]): 9%
COc1cc(OC)c(OC(=O)CC(=O)Nc2c(C(C)C)cccc2C(C)C)c(OC)c1 | -9 | 320 | 
CCCCC(C)(C)OC(=O)CC(=O)Nc1c(C(C)C)cccc1C(C)C | -52 | 15 | 
